Like-named read-outs stand apart in the source and are kept apart here.
Experiments:
ABCA1 protein = assay: Detection of upregulation of ABCA1 protein in THP-1 macrophage cells (ApoA-I binding, high content imaging); type: cell-based; conditions: 24 hrs with compound, AlexaFluor 647 ApoA-I binding, read-out: ABCA1 protein increasing efficacy EC50
Procedure: The ability of compounds of the invention to increase the level of ABCA1 protein is determined in replicate cultures of THP-1 macrophage cells in 96-well microplates. Cells are plated at an initial density of 100,000 cells/well in 100 μl medium and differentiated to adherent macrophages with the addition of PMA (100 nM) for 68 hrs in 10% fetal bovine serum, 3 μl/L of b-mercaptoethanol, RPMI-1640 medium. Then, cells are incubated with RPMI-1640 medium containing 1% FCS, 25 μg/ml acetylated LDL, for 24 hours at 37°. Following incubation with acetylated LDL, cells are washed twice with 50 μl PBS and incubated with 100 μl of RPMI-1640 medium containing the compound of interest solubilized in DMSO for an additional 24 hrs. The final DMSO concentration in presence of cells is maintained at 0.5%. ApoA-I binding assay using High Content Image Analysis is initiated by replacing with fresh medium, RPMI without Phenol Red, 0.2% BSA containing AlexaFluor®647 labeled ApoA-I for 2 h/37° C./5% CO2. Then, cells are fixed with 4% Formaldehyde in PBS (15 min, RT). Following Nuclei are stained with Hoechst solution (3 μM PBS) and Cytoplasm with Cell Mask Blue (2 μg/ml PBS), 15 min, RT. Finally the stained cells are fixed with a second round of formaldehyde treatment. Fixed stained cells are washed and kept in PBS at 4° C. and can be read immediately until one month after preparation.
The Alexa Fluor 647-labeled Apolipoprotein A-I (20 nM) was prepared as follows: Human recombinant Apolipoprotein A-I (ApoA-I) was exchanged to a buffer of 0.02 M NaHCO3 at pH 8.2 on an NAP desalting column (GE Healthcare) and brought to a concentration to 40 μM (1.13 mg/ml) by adjustment with the same buffer. The ApoA-I was fluorescently labeled by incubation with Alexa Fluor carboxylic acid succimidyl ester. (Alexa Fluor 647, Invitrogen A-20006) at a 2:1 molar ratio (Alexa to ApoA-I) for 1 h under shaking at RT. The remaining unconjugated label was removed by buffer exchange to 0.02M NaHCO3 at pH 8.2.
Imaging and data collection were performed on an OPERA confocal microplate imaging reader using a 20× water immersion objective and UV360 or 405 laser to identify the cell nuclei and a 635 laser to identify the fluorescent ApoA-I. Eight fields of view are captured per well. Image capture and analysis was performed with the Acapella software. Background fluorescence detected in control wells without ApoA-I was subtracted.
Using XLfit3 program (ID Business Solutions Ltd. UK), the model 205 for Dose Response One Site is used to calculate the EC50 values. […] Preferably, the compounds of the present invention have EC50 values in a range of 0.1 μM to 3 μM.

human CB1 receptor = target: T1, human CB1 receptor (Homo sapiens, UniProt P21554); assay: CB1 receptor affinity, [3H]-CP-55,940 displacement, HEK cell membranes; type: binding; conditions: read-out: CB1 receptor affinity [% inhibition @ 10 μM]
T1 construct: expressed in transfected cells; host or cells: human embryonic kidney (HEK) cells, Semliki Forest Virus system, membrane preparations
In short: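 Membranes from HEK cells transiently expressing human CB1 (Semliki Forest Virus system) incubated with [3H]-CP-55,940 with or without test compound. Bound and free ligand separated by glass-fibre filtration and bound radioactivity counted by scintillation. Compounds tested at 10 μM, values reported as % inhibition of radioligand binding.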

human CB2 receptor = target: T2, human CB2 receptor (Homo sapiens, UniProt P34972); assay: CB2 receptor affinity, [3H]-CP-55,940 displacement, HEK cell membranes; type: binding; conditions: 10 μM compound, radioligand [3H]-CP-55,940
T2 construct: expressed in transfected cells; host or cells: human embryonic kidney (HEK) cells, Semliki Forest Virus system, membrane preparations
In short: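 Membranes from HEK cells transiently expressing human CB2 (Semliki Forest Virus) incubated with [3H]-CP-55,940 ± compound at 10 μM. Bound ligand separated by glass-fibre filtration and counted by scintillation; reported as % inhibition at 10 μM.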

[1] = 10 μM compound, radioligand [3H]-CP-55,940

T2 sequence (P34972 whole entry): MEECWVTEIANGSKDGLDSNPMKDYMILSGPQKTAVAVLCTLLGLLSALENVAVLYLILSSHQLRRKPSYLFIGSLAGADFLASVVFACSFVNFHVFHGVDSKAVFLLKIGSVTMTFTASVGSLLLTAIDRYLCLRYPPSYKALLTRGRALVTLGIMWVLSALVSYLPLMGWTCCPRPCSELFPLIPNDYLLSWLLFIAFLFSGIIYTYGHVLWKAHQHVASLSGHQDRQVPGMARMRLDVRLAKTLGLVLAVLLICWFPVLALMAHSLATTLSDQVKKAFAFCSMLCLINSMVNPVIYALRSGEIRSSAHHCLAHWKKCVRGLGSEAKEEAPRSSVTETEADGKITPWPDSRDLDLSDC
T1 sequence (P21554 whole entry): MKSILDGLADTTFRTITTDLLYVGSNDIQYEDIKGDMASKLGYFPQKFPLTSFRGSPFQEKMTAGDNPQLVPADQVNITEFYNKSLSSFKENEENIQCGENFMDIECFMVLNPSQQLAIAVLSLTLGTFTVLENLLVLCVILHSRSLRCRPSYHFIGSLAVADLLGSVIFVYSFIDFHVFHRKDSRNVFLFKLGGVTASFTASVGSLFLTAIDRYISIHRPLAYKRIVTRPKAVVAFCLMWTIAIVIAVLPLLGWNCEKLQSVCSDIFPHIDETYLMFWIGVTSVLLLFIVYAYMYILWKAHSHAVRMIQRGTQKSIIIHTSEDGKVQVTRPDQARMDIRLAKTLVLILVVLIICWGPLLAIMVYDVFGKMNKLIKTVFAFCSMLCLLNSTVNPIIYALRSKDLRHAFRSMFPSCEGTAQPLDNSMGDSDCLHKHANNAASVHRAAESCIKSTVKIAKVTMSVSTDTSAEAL

| inhibition at 10 µM (human CB1 receptor; [1]) | inhibition at 10 µM (human CB2 receptor) | SMILES | EC50 (ABCA1 protein) | inhibition at 10 µM (human CB1 receptor) |
| --- | --- | --- | --- | --- |
| 18% | 1% | CCCc1nc(CNC(=O)c2cnc(OCC(F)(F)F)c(-c3ccc(Cl)cc3)c2)cs1 [Example 9, 5-(4-chloro-phenyl)-N-(2-propyl-thiazol-4-ylmethyl)-6-(2,2,2-trifluoro-ethoxy)-nicotinamide] | 900 nM | – |
| 5% | 15% | CC(C)c1nc(CNC(=O)c2cc(-c3ccc(Cl)cc3)c(OCC(F)(F)F)cn2)cs1 [Example 6, 4-(4-chloro-phenyl)-5-(2,2,2-trifluoro-ethoxy)-pyridine-2-carboxylic acid (2-isopropyl-thiazol-4-ylmethyl)-amide] | 7800 nM | – |
| 32% | 28% | COc1cc(CNC(=O)c2cc(-c3ccc(Cl)cc3)c(OCC(F)(F)F)cn2)on1 [Example 1, 4-(4-chloro-phenyl)-5-(2,2,2-trifluoro-ethoxy)-pyridine-2-carboxylic acid (3-methoxy-isoxazol-5-ylmethyl)-amide] | 2010 nM | – |
| 48% | 5% | COc1cc(CNC(=O)c2cnc(OCC(F)(F)F)c(-c3ccc(Cl)cc3)c2)on1 [Example 5, 5-(4-chloro-phenyl)-N-(3-methoxy-isoxazol-5-ylmethyl)-6-(2,2,2-trifluoro-ethoxy)-nicotinamide] | 2100 nM | – |
| 34% | -1% | Cc1cc(-c2cc(C(=O)NCc3nc(C(F)(F)F)no3)cnc2OCC(F)(F)F)ccc1Cl [Example 72, 5-(4-chloro-3-methylphenyl)-6-(2,2,2-trifluoroethoxy)-N-((3-(trifluoromethyl)-1,2,4-oxadiazol-5-yl)methyl)nicotinamide] | 500 nM | – |
| 4% | 7% | O=C(NCc1nc(C(F)(F)F)no1)c1cnc(OCC(F)(F)F)c(-c2ccc(F)c(Cl)c2)c1 [Example 81, 5-(3-chloro-4-fluorophenyl)-6-(2,2,2-trifluoroethoxy)-N-((3-(trifluoromethyl)-1,2,4-oxadiazol-5-yl)methyl)nicotinamide] | 890 nM | – |
| 15% | -4% | Cc1ccc(-c2cc(C(=O)NCc3nc(C(F)(F)F)no3)cnc2OCC(F)(F)F)cc1Cl [Example 80, 5-(3-chloro-4-methylphenyl)-6-(2,2,2-trifluoroethoxy)-N-((3-(trifluoromethyl)-1,2,4-oxadiazol-5-yl)methyl)nicotinamide] | 3130 nM | – |
| 8% | 9% | Cc1cc(-c2cc(C(=O)NCc3csc(C4CC4)n3)ncc2OCC(F)(F)F)ccc1Cl [Example 76, 4-(4-chloro-3-methylphenyl)-N-((2-cyclopropylthiazol-4-yl)methyl)-5-(2,2,2-trifluoroethoxy)picolinamide] | 1640 nM | – |
| 20% | 9% | COc1cc(CNC(=O)c2cnc(OCC(F)(F)F)c(-c3ccc(F)c(F)c3)c2)on1 [Example 99, 5-(3,4-difluorophenyl)-N-((3-methoxyisoxazol-5-yl)methyl)-6-(2,2,2-trifluoroethoxy)nicotinamide] | 1250 nM | – |
| 32% | -2% | C[C@H](Oc1ncc(C(=O)NCc2nc(C(F)(F)F)no2)cc1-c1ccc(Cl)cc1)C(F)(F)F [Example 38, (S)-5-(4-chlorophenyl)-N-((3-(trifluoromethyl)-1,2,4-oxadiazol-5-yl)methyl)-6-(1,1,1-trifluoropropan-2-yloxy)nicotinamide] | 950 nM | – |
| 28% | 24% | O=C(NCc1nc(C(F)(F)F)no1)c1cc(-c2ccc(Cl)cc2)c(OCC2CC2)cn1 [Example 18, 4-(4-chlorophenyl)-5-(cyclopropylmethoxy)-N-((3-(trifluoromethyl)-1,2,4-oxadiazol-5-yl)methyl)picolinamide] | 6910 nM | – |
| 11% | 17% | COc1cc(CNC(=O)c2ncc(OCC(F)(F)F)c(-c3ccc(Cl)c(Cl)c3)n2)on1 [Example 25, 4-(3,4-dichlorophenyl)-N-((3-methoxyisoxazol-5-yl)methyl)-5-(2,2,2-trifluoroethoxy)pyrimidine-2-carboxamide] | 1470 nM | – |
| 43% | -4% | O=C(NCc1noc(C(F)(F)F)n1)c1cnc(OCC(F)(F)F)c(-c2ccc(Cl)cc2)c1 [Example 12, 5-(4-chloro-phenyl)-6-(2,2,2-trifluoro-ethoxy)-N-(5-trifluoromethyl-[1,2,4]oxadiazol-3-ylmethyl)-nicotinamide] | 1180 nM | – |
| 34% | 13% | CC(C)c1cc(CNC(=O)c2cc(-c3ccc(Cl)cc3)c(OCC(F)(F)F)nn2)no1 [Example 42, 5-(4-chloro-phenyl)-6-(2,2,2-trifluoro-ethoxy)-pyridazine-3-carboxylic acid (5-isopropyl-isoxazol-3-ylmethyl)-amide] | 800 nM | – |
| 26% | 33% | CCCn1ccc(CNC(=O)c2cc(-c3ccc(Cl)cc3)c(OCC(F)(F)F)cn2)n1 [Example 4, 4-(4-chloro-phenyl)-5-(2,2,2-trifluoro-ethoxy)-pyridine-2-carboxylic acid (1-propyl-1H-pyrazol-3-ylmethyl)-amide] | 2800 nM | – |
| 40% | 24% | CC(C)c1cc(CNC(=O)c2cc(-c3ccc(Cl)cc3)c(OCC(F)(F)F)cn2)no1 [Example 27, 4-(4-chlorophenyl)-N-((5-isopropylisoxazol-3-yl)methyl)-5-(2,2,2-trifluoroethoxy)picolinamide] | 970 nM | – |
| 2% | -7% | Cc1cc(-c2cc(C(=O)NCc3csc(C4CC4)n3)cnc2OCC(F)(F)F)ccc1Cl [Example 71, 5-(4-chloro-3-methylphenyl)-N-((2-cyclopropylthiazol-4-yl)methyl)-6-(2,2,2-trifluoroethoxy)nicotinamide] | 4290 nM | – |

| SMILES | inhibition at 10 µM (human CB1 receptor; [1]) | inhibition at 10 µM (human CB2 receptor) | EC50 (ABCA1 protein) | inhibition at 10 µM (human CB1 receptor) |
| --- | --- | --- | --- | --- |
| O=C(NCc1nc(C(F)(F)F)no1)c1cnc(OC2CCC2)c(-c2ccc(F)c(F)c2)c1 [Example 91, 6-cyclobutoxy-5-(3,4-difluorophenyl)-N-((3-(trifluoromethyl)-1,2,4-oxadiazol-5-yl)methyl)nicotinamide] | 23% | 12% | 620 nM | – |
| Cc1cc(-c2cc(C(=O)NCc3nc(C(F)(F)F)no3)cnc2OC2CCC2)ccc1Cl [Example 94, 5-(4-chloro-3-methylphenyl)-6-cyclobutoxy-N-((3-(trifluoromethyl)-1,2,4-oxadiazol-5-yl)methyl)nicotinamide] | 19% | 2% | 310 nM | – |
| CCc1cc(CNC(=O)c2cc(-c3ccc(Cl)cc3)c(OCC(F)(F)F)cn2)on1 [Example 3, 4-(4-chloro-phenyl)-5-(2,2,2-trifluoro-ethoxy)-pyridine-2-carboxylic acid (3-ethyl-isoxazol-5-ylmethyl)-amide] | – | 18% | 1240 nM | 38% |
| CCCc1nc(CNC(=O)c2cnc(OCC3CC3)c(-c3ccc(Cl)cc3)c2)cs1 [Example 11, 5-(4-chloro-phenyl)-6-cyclopropylmethoxy-N-(2-propyl-thiazol-4-ylmethyl)-nicotinamide] | – | 12% | 1500 nM | 25% |

Source: US9090599B2, “Heteroarylmethyl amides” (Hoffman-La Roche Inc., priority 2010, dated 2015)
